Test results: US20180028477A1, “TREATMENT OF CARDIAC REMODELING AND OTHER HEART CONDITIONS” (C & C BIOPHARMA, LLC, priority 2013, published 2018)
“Also recorded” adds a separate entry of the source.

What was measured:
[1] = Metabolic stability in human liver microsomes fortified with NADPH (Example 11); format: in vitro ADME; set-up: CLint scaled: dose or concentration left out as unconfirmed
Text: Drug clearance is a measure of the ability of the body or an organ to eliminate a drug from the blood circulation. Systemic clearance is a measure of the ability of the entire body to eliminate the drug. Organ clearance is a measure of the ability of a particular organ (hepatic or renal) to eliminate the drug. For hepatic clearance, the liver is the major organ for drug metabolism and the key organ for drug clearance. Human liver microsomes (HLM) fortified with NADPH is a standard way to measure in vitro metabolism and predict in vivo clearance. CLint (intrinsic clearance) is the link between in vitro and in vivo studies, which can be estimated based on the mono-exponential decay model: Ct=C X e^−kt.
Human liver microsomes fortified with NADPH is a standard approach to evaluate metabolic stability mediated by CYP (cytochrome P450) enzymes in vitro. The reaction mixture (0.4 mL) contained 0.5 mg/mL human liver microsomes, 100 mM phosphate buffer (pH 7.4) and […] of test compounds. The mixture was first warmed up for 5 min in a 37° C. shaking water bath and then NADPH at a final concentration of 1 mM was added to initiate the reaction. Aliquots […] were taken at specified time points and mixed with ice-cold methanol (containing internal standard) to stop the reaction. The mixture was vortexed briefly and centrifuged for protein precipitation. An aliquot of […] supernatant was subject to LC-MS/MS analysis. The percentage of compound disappearance was used to calculate the rate of metabolism.

a variety of cells = experiment: Toxicity in the culture of a variety of cells; format: cell-based
[2] = test system: Neonatal Rat Ventricular Myocytes (NRVMs); experiment: Serum (FBS)-induced hypertrophy of Neonatal Rat Ventricular Myocytes in vitro; format: cell-based
Experimental: The cells were also treated with DMSO (light gray bars) or a vehicle (dark gray bars) as a negative control. The order of potency for inhibitors was DMSO<7MI<TSA<8MI. Viability was unchanged (not shown).
Next, the ability of 7MI and 8MI to inhibit hypertrophy in vitro was tested (FIG. 2A). […] However, fetal calf serum, which contained a rich variety of growth factors, was chosen as the most robust and multifactorial stimulus for cardiomyocyte growth available, reasoning that a similarly robust and powerful inhibitor would be required to block this hypertrophy.

[3] = test system: pressure overload produced by transverse aortic coarctation (TAC) in C57/B16 mice; format: in vivo
Experimental: […]. Mice were treated with daily injections of MEF2 inhibitor 8MI at the indicated concentrations for two weeks beginning immediately after transverse aortic banding. N=at least 3 per condition. Mice were subjected to either a sham operation (dark gray bars) or TAC (light gray bars). […] Ejection fraction, a measure of contractile function, was determined by echocardiography on a Vevo 770 ultrasound system prior to sacrifice at two weeks.
[…]. TAC has been used extensively to model the clinical hypertrophic stimuli of hypertension, aortic valve disease, and other types of pressure overload. In vivo pressure overload was created in wild type C57/B16 by creation of a surgical restriction in the transverse aorta between the origins of the right and left carotid arteries as previously described in Wei et. al. 2008. Control littermates were subjected to a sham operation. […] Trans-aortic gradients were determined by simultaneous measurements from the right and left carotid arteries using Statham pressure transducers (model P23XL, Viggo-Spectramed, Oxnard, Calif.) zeroed at the level of the right atrium. Pressures were continuously recorded as described in Wei et. al. 2008. […]
C57/B16 mice were treated with 8MI for two weeks and evaluated for cardiac function by echocardiography and for cardiac mass using a standard index of heart weight to tibia length (HW/TL) after sacrifice. […]

[4] = test system: cardiac structural and hypertrophy-associated genes (Col1, Col3, ANP, BNP, SERCA2, alpha- and beta-MHC); experiment: Quantitative realtime PCR of cardiac structural and hypertrophy-associated genes in left ventricular tissue after TAC (Example 7); format: in vivo, mice; conditions: mRNA, 21 days after TAC
Experimental: In parallel samples from the experiment described in Example 4, the expression of a group of cardiac structural and hypertrophy-associated genes were quantified. Total RNA was extracted from left ventricular tissue using TRIzol Reagent (Invitrogen, Carlsbad, Calif.). cDNA was amplified using TaqMan Universal PCR master mix reagent (Applied Biosystems, Foster City, Calif.) under the following conditions: 2 min at 50° C., 10 min at 95° C., 40 cycles: 15 s at 95° C. and 1 min at 60° C. in an ABI 7900HT thermocycler. mRNA expression levels were normalized to those of the internal reference 18S rRNA. All samples were run in duplicates. The following primer sets were used: ANP, BNP, SERCA, MHC, and 18S. Data was analyzed using software RQ manager 1.2 from Applied Biosystems.

[5] = test system: myocyte apoptosis during TAC; experiment: Myocyte apoptosis in myocardial tissue after TAC, TUNEL assay (Example 10); format: in vivo, mice
Text: In parallel samples from the experiment described in Example 4, apoptosis was quantitated in myocardial tissue from sham- and TAC-operated mice in the presence of vehicle or 8MI. Apoptosis was detected following recommended protocol for the commercially available terminal deoxynucleotidyl transferase-mediated dUTP nick-end labeling (TUNEL) assay kit (Cardiotacs, Trevigne, Gaithersburg, Md.).

Nc1ccccc1NC(=O)CCCCCC(=O)Nc1cccc(Br)c1 [8MI]
K (rate constant) ([1]; 0.5 mg/mL human liver microsomes, 1 mM NADPH, pH 7.4, 37° C.): 0.0046 min⁻¹ | Clhp (hepatic clearance) ([1]; human liver microsomes): 3.85 mL/min/kg | CLint scaled ([1]; pH 7.4, human liver microsomes, from mono-exponential decay model, read-out: Clint (intrinsic clearance)): 4.73 mL/min/kg | concentration up to which no apparent toxicity was seen (a variety of cells): up to 20 μM | viability ([2]; NRVMs (not shown)): unchanged | order of potency for inhibitors ([2]; NRVMs, FBS-induced growth): most potent inhibitor; also recorded: DMSO<7MI<TSA<8MI | growth response to Fetal Bovine Serum / serum-stimulated myocyte growth (hypertrophy) ([2]; NRVMs, pre-treatment with a range of doses): sufficient to block myocyte hypertrophy; also recorded: depressed growth response | mortality ([3]; mouse, in vivo): no mortality | TAC-induced reduction of Left Ventricular Ejection Fraction (LVEF) ([3]; two weeks after TAC, 5, 20 and 40 μg/g 8MI daily): largely prevented this impairment of function | stress-induced expression of B-type natriuretic peptide (BNP) [4]: markedly attenuated | stress-induced expression of Collagen Type 1 (Col1) [4]: markedly attenuated | stress-induced expression of Collagen Type 3 (Col3) [4]: markedly attenuated | stress-induced expression of SERCA2 [4]: markedly attenuated | stress-induced expression of alpha-myosin heavy chain [4]: markedly attenuated | stress-induced expression of atrial natriuretic peptide (ANP) [4]: markedly attenuated | stress-induced expression of beta-myosin heavy chain [4]: markedly attenuated | apoptosis in TAC-operated mice at the highest dose ([5]; 40 mg/kg): reduced to approximately the same level of apoptosis observed for the sham-operated mice | apoptosis in TAC-operated mice ([5]; dose range): reduced in TAC-operated mice by 8MI in a dose-dependent manner; also recorded: prevented myocyte apoptosis during TAC in a dose dependent manner
